# Test results: PMC12454639, “Direct disassembly of α-syn preformed fibrils into α-syn monomers by an all-D-peptide” (NPJ Parkinson's Disease, 2025)
# “Also recorded” adds a separate entry of the source. Square brackets hold non-standard residues; d marks the D form. Peptide text beside a SMILES is read from it.
# Tests used:
# α-syn monomer = test: CD secondary structure analysis of de novo aggregation; assay type: biochemical; conditions: 10 µM α-syn + 20 µM SVD-1a (two-fold molar excess), 7 days
# Method: Fig. 7 De novo aggregation analysis of α-syn in the presence and absence of SVD-1a. A De novo ThT assay of 10 µM α-syn with and without 20 µM SVD-1a. ThT fluorescence progression was measured in a 96-well non-binding half-area plate (Corning, USA) with a FLUOStar plate reader (BMG labtech, GE) at λex = 448 nm and λem = 482 nm with 300 rpm continuous orbital shaking between reads. For induction of aggregation, one borosilicate bead per well was added (d = 3 mm, Hilgenberg, GE). Data are shown as mean values with ±SD (n = 5). B CD secondary structure analysis of de novo aggregation samples. Samples were incubated as described in (A) without added ThT (n = 3) and subsequently pooled for CD analysis. Far-UV ellipticity of the samples was measured in a quartz cuvette (l = 10 mm) in a J-1100 CD-spectrometer (Jasco, GE). In addition to (A), a sample with 20 µM SVD-1a alone was incubated under identical conditions and later used as a reference for the sample with α-syn and SVD-1a. For this sample (α-syn + SVD-1a (after incubation)), the SVD-1a reference subtracted CD spectrum is shown. […] D α-Syn in the flow through (MWCO < 100 kDa) was quantified using an α-syn specific ELISA (BioLegend, Human α-Synuclein (Colorimetric), 448607, n = 3). E Retentate and flow-through samples were analyzed using SDS–PAGE with silver staining. […]
# [1] = system: 15N-labeled full-length acetyl-α-syn; test: NMR paramagnetic relaxation enhancement (PRE); assay type: binding; conditions: spin-labeled SVD-1a (SVD-1a_Cys_MTSL), 1:1 with α-syn, 10 °C
# Method: The spin-labeled analog of SVD-1a was prepared by covalent attachment of MTSL (S-(1-oxyl-2,2,5,5-tetramethyl-2,5-dihydro-1H-pyrrol-3-yl)methyl methanesulfonothioate, Toronto Research Chemicals, USA) to the C-terminal D-cysteine residue of SVD-1a_Cys. MTSL was dissolved in DMF (N,N-dimethylformamide) with a concentration of 20 mM and diluted in 200 mM HEPES, pH 7.6, to a final concentration of 2 mM. 900 µl of the solution was then added to 1 mg of lyophilized SVD-1a_Cys to create a fivefold molar excess of MTSL compared to SVD-1a_Cys. […]
# NMR paramagnetic relaxation enhancement (PRE) data were recorded on 25 µM ^15N-labeled full-length acetyl-α-syn in the presence of 25 µM paramagnetically labeled (but not isotopically enriched) SVD-1a_Cys_MTSL (using a MTSL spin-label covalently attached to the SVD-1a C-terminus), resulting in a 1:1 ratio of α-syn: SVD-1a. Intensities (Ipara) were extracted from 2D ^1H–^15N Best-TROSY NMR spectra recorded at 600 MHz and 10 °C, each with 128 scans per increment, resulting in a total experimental time of 16 h per spectrum. […] The diamagnetic reference spectra and intensities (Idia) were recorded back-to-back and under identical conditions as for the paramagnetic sample. […]
# [2] = CD spectroscopy of SVD-1a alone; assay type: physicochemical; conditions: 30 µM, PBS pH 7.4, 37 °C
# Method: (§1) Far-UV circular dichroism (CD) data were collected using a Jasco J-1100 spectropolarimeter (Jasco, GE). 350 µl samples were pooled and loaded into a high precision quartz cuvette with a path length of 1 mm (Hellma group, GE). A scan speed of 20 nm/min with five accumulations per sample was performed using far UV wavelengths from 260 to 190 nm. Baseline was corrected by subtracting measurements of the reference sample only.
# (§2) Supplementary Fig. 13: Analysis of the seeded aggregation assay in the presence and absence of SVD-1a using circular dichroism (CD) spectroscopy. Small α-syn PFF (500 nM) were incubated in PBS (pH 7.4) at 37 °C under quiescent conditions for 24 hours, either alone or in the presence of 15 µM α-synuclein monomer and/or 30 µM SVD-1a. For each condition and time point, three replicates (each 120 µl) were pooled and analyzed by CD spectroscopy at 0, 2, 8, and 24 hours. Far-UV ellipticity was measured in a quartz cuvette (path length = 10 mm) using a J-1100 CD spectrometer (Jasco, GE). […] (D) Co-incubation of 500 nM α-synuclein PFFs with 15 µM α-synuclein monomer induced a structural transition towards β-sheet formation, as reflected in the CD spectrum (referenced to spectrum in (A)).
# [3] = system: α-synuclein monomer seeded with small α-syn PFF; test: CD spectroscopy of the seeded aggregation assay; assay type: biochemical; conditions: 30 µM SVD-1a, 500 nM PFF, 15 µM α-syn monomer, PBS pH 7.4, 37 °C, 24 h
# Method: as §1, §2
smiles,measurement,setting,value
CC[C@@H](C)[C@@H](NC(=O)[C@@H](Cc1c[nH]cn1)NC(=O)[C@@H](CCC(=O)O)NC(=O)[C@@H](CCC(N)=O)NC(=O)[C@@H](Cc1c[nH]c2ccccc12)NC(=O)[C@@H](Cc1ccc(O)cc1)NC(=O)[C@H](NC(=O)[C@@H](CCC(=O)O)NC(=O)[C@@H](Cc1c[nH]cn1)NC(=O)[C@H](NC(=O)[C@H]1CCCN1C(=O)[C@@H](CC(C)C)NC(=O)[C@H](N)CCCNC(=N)N)[C@H](C)O)[C@H](C)O)C(=O)N[C@H](Cc1c[nH]c2ccccc12)C(=O)N[C@H](Cc1c[nH]cn1)C(=O)N[C@H](C)C(=O)N[C@H](CCCNC(=N)N)C(=O)N[C@H](CCCNC(=N)N)C(=O)N[C@H](CCCNC(=N)N)C(=O)N[C@H](CCCNC(=N)N)C(=O)N[C@H](CCCNC(=N)N)C(N)=O [SVD-1a] (H-[dR][dL][dP][dT][dH][dE][dT][dY][dW][dQ][dE][dH][dI][dW][dH][dA][dR][dR][dR][dR][dR]-NH2),α-syn secondary structure after de novo aggregation (CD),α-syn monomer,no spectrum shift towards a beta-sheet spectrum was observed; also recorded: fully stabilizes monomeric α-syn in its random coil secondary structure after 7 days of incubation
same,site of interaction with α-syn (PRE),[1],"interacts with the entire α-syn monomer, with the C-terminal part showing the strongest interaction"
same,secondary structure of peptide alone (CD),[2],random coil secondary structure
same,α-syn secondary structure under seeded conditions,[3],stabilized the α-synuclein monomer in its random coil conformation throughout the incubation period
